Measured values reported in ChEMBL document CHEMBL4190186 (Medchemcomm, 2016).
Activity calls are given as the source filed them. No cut-off for these calls is given here.

Columns and labels:
[1] = test system: T98G; test: Cytotoxicity against PTEN/TP53 deficient human T98G cells assessed as cell death at 20 uM after 48 hrs by MTT assay relative to control; format: functional
[2] = test system: LN-18; test: Cytotoxicity against human LN18 cells harboring TP53 mutation assessed as cell death at 20 uM after 48 hrs by MTT assay relative to control; format: functional
[3] = test system: NCI-H460; test: Cytotoxicity against human NCI-H460 cells; format: functional, cell-based
[4] = test system: LN-18; test: Induction of apoptosis in human LN18 cells harboring TP53 mutation assessed as increase in cleaved caspase-9 expression at 20 uM after 24 to 48 hrs by Western blot analysis; format: functional, cell-based
[5] = test system: T98G; test: Effect on H3K27me3 levels in PTEN/TP53 deficient human T98G cells at 20 uM after 24 to 48 hrs by Western blot analysis; format: ADME, cell-based
[6] = test system: LN-18; test: Induction of apoptosis in human LN18 cells harboring TP53 mutation assessed as increase in cleaved caspase-8 expression at 20 uM after 24 to 48 hrs by Western blot analysis; format: functional, cell-based
[7] = test system: LN-18; test: Induction of apoptosis in human LN18 cells harboring TP53 mutation assessed as increase in cleaved caspase-3 expression at 20 uM after 24 to 48 hrs by Western blot analysis; format: functional, cell-based
[8] = test system: T98G; test: Induction of apoptosis in PTEN/TP53 deficient human T98G cells assessed as increase in cleaved PARP expression at 20 uM after 24 to 48 hrs by Western blot analysis; format: functional, cell-based
[9] = test system: LN-18; test: Induction of apoptosis in human LN18 cells harboring TP53 mutation assessed as increase in cleaved PARP expression at 20 uM after 24 to 48 hrs by Western blot analysis; format: functional, cell-based
[10] = test system: T98G; test: Induction of apoptosis in PTEN/TP53 deficient human T98G cells assessed as increase in cleaved caspase-3 expression at 20 uM after 24 to 48 hrs by Western blot analysis; format: functional, cell-based
[11] = test system: LN-18; test: Cytotoxicity against human LN18 cells harboring TP53 mutation after 48 hrs by MTT assay; format: functional, cell-based
[12] = test system: T98G; test: Cytotoxicity against PTEN/TP53 deficient human T98G cells after 48 hrs by MTT assay; format: functional, cell-based
[13] = test system: T98G; test: Induction of apoptosis in PTEN/TP53 deficient human T98G cells assessed as increase in cleaved caspase-9 expression at 20 uM after 24 to 48 hrs by Western blot analysis; format: functional, cell-based
[14] = test system: T98G; test: Induction of apoptosis in PTEN/TP53 deficient human T98G cells assessed as increase in cleaved caspase-8 expression at 20 uM after 24 to 48 hrs by Western blot analysis; format: functional, cell-based
[15] = test system: LN-18; test: Effect on H3K27me3 levels in human LN18 cells harboring TP53 mutation at 20 uM after 24 to 48 hrs by Western blot analysis; format: ADME, cell-based; settings: ln-18, 20 µM
[16] = test system: Astrocyte; test: Cytotoxicity against rat primary cortical astrocytes assessed as reduction in cell viability at 5 to 40 uM after 48 hrs by MTT assay relative to control; format: cell-based

In the case of CON1C(=O)/C(=C\c2ccc(-c3ccccc3)cc2)c2ccccc21, the Activity [1] is reported as “Active” and the Activity [2] is reported as “Active”.
For Nc1nsc2c1C(=O)c1ccccc1C2=O, the Activity [1] was >50 - 70%, the IC50 [3] was 0.28 µM and the Activity [2] was >50 - 70%.
With O=C(Nc1ccccc1)Nc1ccc(/C=C2\C(=O)Nc3ccccc32)cc1 the Activity [1] was “inactive” and the Activity [2] was “inactive”.
O=C1/C(=C\c2ccc(O)cc2)c2ccccc2N1O was tested, and the Activity [1] was “inactive” and the Activity [2] was “inactive”.
For O=C(/C=C/c1ccc(-c2ccccc2)cc1)NO, the Activity [1] was “Active” and the Activity [2] was “Active”.
In the case of O=C(Nc1ccccc1)Nc1ccc(/C=C2\C(=O)N(O)c3ccccc32)cc1, the Activity [1] is reported as “inactive” and the Activity [2] is reported as “inactive”.
In the case of NNC(=O)/C=C/c1ccc(-c2ccccc2)cc1, the Activity [1] is reported as “Active” and the Activity [2] is reported as “Active”.
O=C1Nc2ccc(Cl)cc2/C1=C/c1ccc(-c2ccccc2)cc1 was tested, and the Activity [1] was “Active” and the Activity [2] was “Active”.
For O=C1/C(=C\c2ccc(-c3ccccc3)cc2)c2ccccc2N1O, the Activity [1] was “Active” and the Activity [2] was “Active”.
For CN(C)c1nsc2c1C(=O)c1ccccc1C2=O, the Activity [4] was “inactive”, the Activity [1] was >50 - 70% and the Activity [5] was “Non-Toxic”. For the same molecule, the IC50 [3] was 0.22 µM, the Activity [6] was “inactive” and the Activity [7] was “inactive”. The Activity [8] was “inactive”, the Activity [9] was “inactive” and the Activity [10] was “inactive”. The Activity [11] was “Dose-dependent effect”, the Activity [12] was “Dose-dependent effect” and the Activity [2] was >50 - 70%. The Activity [13] was “inactive”, the Activity [14] was “inactive” and the Activity [15] was “Non-Toxic”.
In the case of Cc1[nH]c2ccccc2c1/C=C/c1ccccc1-c1ccc(/C=C/C(=O)Nc2cc(-c3ccccc3)ccc2O)cc1, the Activity [1] is reported as “Active” and the Activity [2] is reported as “Active”.
For NNC(=O)N/C=C/c1ccc(-c2ccccc2)cc1, the Activity [1] was “Active” and the Activity [2] was “Active”.
In the case of O=C1Nc2ccccc2/C1=C/c1ccc(-c2ccccc2)cc1, the Activity [1] is reported as “Active” and the Activity [2] is reported as “Active”.
O=C1c2ccccc2C(=O)c2c(-c3ccccc3)nsc21 was tested, and the Activity [4] was “inactive”, the Activity [1] was >50 - 70% and the Activity [5] was “Non-Toxic”. The IC50 [3] was 0.36 µM, the Activity [6] was “inactive” and the Activity [7] was “inactive”. The Activity [8] was “inactive”, the Activity [16] was over 50% and the Activity [9] was “inactive”. The Activity [10] was “inactive”, the Activity [11] was “Dose-dependent effect” and the Activity [12] was “Dose-dependent effect”. For the same molecule, the Activity [2] was >50 - 70%, the Activity [13] was “inactive” and the Activity [14] was “inactive”. For the same molecule, the Activity [15] was “Non-Toxic”.
With COc1ccc(-c2ccc(/C=C/C(=O)NO)cc2)cc1 the Activity [1] was “Active” and the Activity [2] was “Active”.
Cc1[nH]c2ccccc2c1/C=C/c1ccccc1-c1ccc(/C=C/C(=O)NO)cc1 was tested, and the Activity [4] was “Active”, the Activity [1] was over 70% and the Activity [5] was “Non-Toxic”. For the same molecule, the Activity [6] was “Active”, the Activity [7] was “Active” and the Activity [8] was “Active”. The Activity [16] was “Non-Toxic”, the Activity [9] was “Active” and the Activity [10] was “Active”. For the same molecule, the Activity [11] was “Dose-dependent effect”, the Activity [12] was “Dose-dependent effect” and the Activity [2] was over 70%. The Activity [13] was “Active”, the Activity [14] was “Active” and the Activity [15] was “Non-Toxic”.
